Source: paper PMC10850190, “Bifidobacterial GH146 β-L-arabinofuranosidase for the removal of β1,3-L-arabinofuranosides on plant glycans” (Applied Microbiology and Biotechnology, 2024)

Target: T1, Bll1HypBA1 (Bifidobacterium longum, UniProt E8MGH8)
T1 construct: gene hypBA1; GH127 enzyme prepared as in earlier reports; homodimer
T1 sequence (E8MGH8 1-658): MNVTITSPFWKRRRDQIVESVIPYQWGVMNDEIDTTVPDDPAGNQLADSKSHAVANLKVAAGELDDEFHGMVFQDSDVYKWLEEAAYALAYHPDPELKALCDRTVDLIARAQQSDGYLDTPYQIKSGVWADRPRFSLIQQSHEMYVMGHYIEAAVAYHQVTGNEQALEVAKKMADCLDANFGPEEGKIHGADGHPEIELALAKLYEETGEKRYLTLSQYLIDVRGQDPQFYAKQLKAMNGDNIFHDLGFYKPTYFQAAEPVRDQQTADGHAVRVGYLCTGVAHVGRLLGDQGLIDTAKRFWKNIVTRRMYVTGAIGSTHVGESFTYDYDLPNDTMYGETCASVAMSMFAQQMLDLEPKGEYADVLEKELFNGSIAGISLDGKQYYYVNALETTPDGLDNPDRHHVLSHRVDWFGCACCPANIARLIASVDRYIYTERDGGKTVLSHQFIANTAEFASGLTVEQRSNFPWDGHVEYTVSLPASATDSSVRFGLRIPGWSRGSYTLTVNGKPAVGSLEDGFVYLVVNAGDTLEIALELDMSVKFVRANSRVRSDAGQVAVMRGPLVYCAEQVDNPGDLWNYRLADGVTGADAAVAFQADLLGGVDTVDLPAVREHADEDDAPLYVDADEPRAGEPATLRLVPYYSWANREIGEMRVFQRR
Experiment: TLC, released L-arabinose
Assay type: biochemical
Conditions: 50 mM sodium acetate pH 5.5; 37 °C; 16 h

| SMILES | TLC, released L-arabinose |
| --- | --- |
| CO[C@@H]1O[C@@H](CO)[C@H](O)[C@H]1O[C@H]1O[C@@H](CO)[C@H](O)[C@H]1O [β2, Araf-β1,2-Araf-α-OMe] | Conversely, Bll1HypBA1 completely hydrolyzed these substrates |
| CO[C@@H]1O[C@@H](CO[C@H]2O[C@@H](CO)[C@H](O)[C@H]2O)[C@H](O)[C@H]1O [β5, Araf-β1,5-Araf-α-OMe] | Conversely, Bll1HypBA1 completely hydrolyzed these substrates |
